Experimental data as given in patent publication US9657110B2, “Polypeptides and use thereof” (ASTON UNIVERSITY, priority 2011, dated 2017).
One block for each sequence: values may come before it.

Assays:
[1] = system: human recombinant TG2 binding to FN and its 45 kDa and 70 kDa fragments; experiment: Inhibition of purified TG2 binding to FN by TG2-derived peptides (ELISA); details: peptide 10 μM-1 mM, effect at higher concentrations
Experimental: 96-well Microtitre 96-well plates were coated overnight with either full length FN (5 μg/ml), its 45 kDa (54 μg/ml) or 70 kDa (45 μg/ml) fragments, in 50 mM Tris-HCl, pH 7.4 as previously described (Verderio et al., 2003b). Wells were blocked with 3% BSA (w/v) in TBS pH 7.6. After three washes with PBS pH7.4, competitive peptides diluted in PBS, 2 mM EDTA, pH 7.4 were added to the wells at concentrations from 10 μM-1 mM and incubated for 1 h at room temperature. Wells were washed three times with PBS pH7.4 and purified human recombinant TG2 was added at a final concentration of 2 μg/ml in the presence of the different concentrations of P2 or P2s peptides and incubated for 1 h at room temperature. After three washes with PBS pH7.4 bound TG2 was measured via ELISA as introduced above. […] The treated TG2 was then detected by the ELISA assay as described above.

HOB cells = experiment: Cell adhesion assay (attachment and spreading) on FN or TG-FN matrix with RGD or RAD peptide; assay type: cell-based, human; details: for effect on attachment and spreading of HOB cells on TG-FN in the presence of the RGD peptide: TG-FN matrix, peptide 100-300 μg/ml
Experimental: The cell adhesion assay was carried out as previously described (Wang et al., 2010). Briefly, 96-well plastic tissue culture plates were coated with 5 μg/ml FN in 50 mM Tris-HCl, pH 7.4 at 4° C. overnight, after washing three times with 100 μl of 50 mM Tris-HCl, pH7.4, gplTG (20 μg/ml) in 2 mM EDTA in PBS, pH 7.4 was added to the wells for 1 h at 37° C. and the wells were washed three times with 50 mM Tris-HCl, pH7.4. Serum-starved (for 16 h) HOB cells with different treatments as introduced below in serum-free medium were detached by trypsinization and then treated with trypsin inhibitor. Cells were washed three times with serum free medium and seeded onto either FN or TG-FN matrix for 20-40 min. Peptides P1 or scrambled P1 (P1s), were added at concentrations between 100 μg/ml and 300 μg/ml. […] Attached cells were washed once with PBS, pH 7.4 and then fixed with 3.7% paraformaldehyde, further permeabilised with 0.1% (v/v) Triton® X-100 detergent in PBS, and co-stained with May-Grunwald and Giemsa stains as described previously (Jones et al., 1997). Images of stained cells from non-overlapping fields of view were photographed at 20× magnification and analyzed using the imaging analysis program Scion Image (National Institute of Health). Cell attachment and spreading were quantified, and the number of cells per image was assessed as described previously (Telci et al., 2008). Cell attachment on FN without peptide was considered as the control value for all the experiments unless stated otherwise. The mean number of attached cells form three wells was calculated and that of the control was considered as 100%. The mean number of attached cells (cell attachment) for each sample was then expressed as the percentage of cell attachment on FN. The mean percentage of attached cells that are spread (cell spreading) for each sample was determined separately, and the mean percentage of spread cells on FN control was expressed as 100%. The mean percentage of spread cells for each sample was then normalised against that of FN control Cell attachment on FN without the RGD peptide was considered as the control value for most of the experiments unless stated otherwise The mean number of attached cells from three wells was calculated and that of the control was considered as 100%. The mean number of attached cells (cell attachment) for each sample was then expressed as the percentage of cell attachment on FN. The mean percentage of attached cells that are spread (cell spreading) for each sample was determined separately, and the mean percentage of spread cells on the FN control was expressed as 100%. The mean percentage of spread cells for each sample was then normalised against that of FN control Cell pre-treatments included: PKCα inhibitor Go6976 (5 μM) or GK21 peptide (8 μM) for 1 h in serum-free medium prior to cell detachment; heparinase (15 mU/ml) or chondroitinase (15 mU/ml) to cells in suspension in serum free medium for 1 h. For the detection of the signalling molecules via Western blotting, the cell adhesion assay was performed in 60 mm Petri dishes and cells were collected into cell lysis buffer (Santa Cruz, UK) as described previously and pre-cleared by centrifugation at 300×g for 10 min. Western blotting was performed with specific anti-p-397 FAK or p-ERK1/2 antibodies. Membranes were stripped (Telci et al., 2008) and total FAK and ERK1/2 detected using anti-FAK and anti-ERK1/2 antibodies as listed in Table 2, while α-tubulin was used as an equal loading standard (Wang et al., 2011).
Cell adhesion and spreading assays were performed as described above in Example 1 method ‘Cell adhesion assay’

p-397 FAK = experiment: Western blotting of p-397 FAK after cell adhesion assay; assay type: cell-based, human; details: HOB on FN, RGD, peptide 100 μg/ml
Experimental: (§1) Cell lysates containing 50 μg of protein were dissolved in 2× Laemmli buffer (Sigma-Aldrich Ltd, Dorset, UK) and separated by SDS-PAGE. Western blotting was performed using specific primary antibodies as described above. Primary antibodies were detected using the appropriate secondary antibody conjugated to horse radish peroxidase. Detection was by chemiluminescence (Amersham ECL™ Western Blotting System, GE Healthcare, UK).
(§2) The cell adhesion assay was carried out as previously described (Wang et al., 2010). […] Images of stained cells from non-overlapping fields of view were photographed at 20× magnification and analyzed using the imaging analysis program Scion Image (National Institute of Health). Cell attachment and spreading were quantified, and the number of cells per image was assessed as described previously (Telci et al., 2008). […] The mean number of attached cells form three wells was calculated and that of the control was considered as 100%. The mean number of attached cells (cell attachment) for each sample was then expressed as the percentage of cell attachment on FN. The mean percentage of attached cells that are spread (cell spreading) for each sample was determined separately, and the mean percentage of spread cells on FN control was expressed as 100%. […]

p-ERK1/2 = experiment: Western blotting of p-ERK1/2 after cell adhesion assay; assay type: cell-based, human; details: HOB on FN, RGD, peptide 100 μg/ml
Experimental: as §1, §2

[2] = HOB cells on FN, RGD peptide, tested 0.01-200 μg/ml

Sequence of human recombinant TG2 binding to FN and its 45 kDa and 70 kDa fragments (P02751 291-608 limits assumed): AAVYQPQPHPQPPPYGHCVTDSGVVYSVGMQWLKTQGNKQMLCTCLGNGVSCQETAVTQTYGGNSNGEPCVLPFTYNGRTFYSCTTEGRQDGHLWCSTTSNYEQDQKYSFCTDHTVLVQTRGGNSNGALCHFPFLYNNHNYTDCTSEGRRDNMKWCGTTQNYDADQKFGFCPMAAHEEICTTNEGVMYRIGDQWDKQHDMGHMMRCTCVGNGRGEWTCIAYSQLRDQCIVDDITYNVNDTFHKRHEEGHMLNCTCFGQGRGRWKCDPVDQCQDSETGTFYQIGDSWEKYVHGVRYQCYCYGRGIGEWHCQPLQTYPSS

inhibition of wild type TG2 binding to FN and its 45 and 70 kDa fragments [1]: moderate but significant inhibition
Sequence: AEELVLERCDLELE (listed as Homo sapiens) [P2, peptide corresponding to the N-terminal end of TG2]

inhibition of wild type TG2 binding to FN and its 45 and 70 kDa fragments [1]: No effect
Sequence: EECRLAEELLEDVL (Scrambed Control Peptide) [P2s, scrambled P2 peptide, reference compound]

Sequence: FNRADLKPRCGSSNKSR (Scrambled Control Peptide) [P1s, scrambled control peptide for P1, reference compound]
effect on attachment and spreading of HOB cells on TG-FN in the presence of the RGD peptide (HOB cells): almost no effect
phosphorylation of p-FAK397 (p-397 FAK): not found
phosphorylation of p-ERK1/2 (p-ERK1/2): not found

Sequence: NPKFLKNAGRDCSRRSS (listed as Homo sapiens) [P1]
effect on binding of cells to FN alone (HOB cells; FN matrix, 100-300 μg/ml, compared to P1s): small but significant enhancement of adhesion
concentration at which compensation of RGD-induced loss of cell adhesion started (HOB cells; [2]): 5 to 10 µg/mL
concentration of maximum compensation of RGD-induced loss of cell adhesion (HOB cells; [2]): 50 to 100 µg/mL
compensatory effect on RGD-induced loss of cell adhesion after heparinase pre-treatment (HOB cells; HOB cells treated with heparinase 15 mU/ml (not chondroitinase), FN): abolished
compensatory effect on RGD-induced loss of cell adhesion after syndecan-4 siRNA (HOB cells; HOB cells, syndecan-4 siRNA (around 50% reduction in protein expression)): comparable reduction in the compensatory effect
effect on attachment and spreading of HOB cells on TG-FN in the presence of the RGD peptide (HOB cells): small, but not significant dose-dependent negative effect
phosphorylation of p-FAK397 (p-397 FAK): paralleled by the phosphorylation of p-FAK397
phosphorylation of p-ERK1/2 (p-ERK1/2): paralleled by the phosphorylation of p-FAK397 and p-ERK1/2
